# Assay results taken from patent US6841362B1, “Melanoma differentiation associated gene-7 promoter and uses thereof” (The Trustees of Columbia University in the City of New York, priority 2000, dated 2005).
# How the values were obtained:
# mda-7 promoter = mda-7 promoter activity on IL-6 treatment; assay type: cell-based; details: cells treated with IL-6, unpublished data
# Protocol: It appears that C/EBP-B/LAP binding sites at a distance from the TATA element are responsible for mda-7 expression in terminally differentiated human melanoma cells. Another line of evidence supporting the involvement of the C/EBP gene family in melanoma terminal differentiation is apparent from increased levels of C/EBP-B/LAP protein in HO-1 cells as early as 24 h after treatment with IFN-β+MEZ when compared to cells treated with IFN-β, MEZ or TPA. The transcription factor C/EBP is a heat-stable, sequence-specific DNA-binding protein first purified from rat liver nuclei (39). C/EBP regulates gene expression in a variety of tissues including liver, adipose, lung and intestine (40). This transcription factor appears to function exclusively in differentiated and growth-arrested cells (40). […] It is the ratio of LIP/LAP that is important in C/EBP-mediated gene expression. In the case of terminally differentiated HO-1 melanoma cells, we were unable to detect any LIP protein. The present studies provide evidence that the C/EBP gene family members, C/EBP-B/LAP in particular, play a major role during melanoma terminal differentiation. C/EBP-a and -B can both directly induce the mda-7 promoter as shown by ectopic expression analyses. […]
# p21/Waf1/Cip1/mda-6 = experiment: Effect of cycloheximide on p21/mda-6 message, Northern blotting; assay type: cell-based, human; details: HO-1 cells, cycloheximide 10 μg/ml for 3 h
# Protocol: (§1) FIGS. 4A-4B. Effect of actinomycin D and cycloheximide on th half-life and stability of the mda-7 message. […] Northern blotting analyses were performed on total RNA isolated from control (C)HO-1 or cells treated with IFN-β (I), MEZ (M) or IFN-β+MEZ (I+M), at the same concentrations as in FIG. 1. Twenty-four h after exposure to the inducing agent(s), acitnomycin D (Act.D, 5 μg/ml) was added (+Act.D) for 30 minutes (30′) or one h (1′). Mda-7 expression was detected using a radiolabeled mda-7 cDNA probe as previously described (Jiang et al., 1995a). rRNA visualized by ethidium bromide was used as a loading control. (FIG. 4B) Effect of cycloheximide treatment on mda-7 mRNA stability relative to p21/mda-6 Untreated control (C)HO-1 cells or cells treated for 24 h with IFN-β (I), MEZ (M) or IFN-β+MEZ at the same concentrations as in FIGS. 1A-1B. After 24 h induction, cells were treated with or without cycloheximide (10 μg/ml) for 3 h and total RNA was isolated and analyzed by Northern blotting. Mda-7 expression was detected using a radiolabeled mda-7 cDNA probe (Jiang et al., 1995a). The blot was allowed to decay for 3 months, and then reprobed using a radiolabeled probe against a p21/mda-6 cDNA (Jiang et al., 1995b). rRNA visualized by ethidium bromide was used as a loading control. […]
# mda-7 mRNA [1] = experiment: Effect of cycloheximide on mda-7 mRNA stability, Northern blotting; assay type: cell-based, human; details: MEZ treated HO-1 cells, cycloheximide 10 μg/ml for 3 h; lesser extent in control and IFN-β treated samples
# Protocol: as §1
# cJun/AP-1 = experiment: Western blotting of cJun/AP-1 protein in whole cell lysates; assay type: cell-based, human; details: HO-1 cells, 24 h treatment, compared to uninduced controls
# Protocol: (§2) FIGS. 8A-8C. Protein expression pattern of the transcription factors cJun/AP-1 and C/EBP-β and their ability to transactivat the mda-7 promoter. [FIG. 8A] Whole cell lysates from HO-1 control cells (C) and those treated with IFN-β (I), MEZ (M), IFN-β+MEZ (I+M) or TPA were resolved on a 4-20% SDS-PAGE gel and transblotted onto nitrocellulose filters. Immobilized proteins were then analyzed by Western blotting using commercially available cJun/AP-1 and C/EBP-β specific antibodies. […] Equal protein loading was determined by Coomassie blue staining of a parallel gel. [FIG. 8B] […]
# (§3) Electrophoresis and immunoblotting. Equal amounts of whole cell proteins were analyzed by sodium dodecylsulfate-polyacrylamide gel electrophoresis (SDS-PAGE, 4-20% gradient gel; Novex) and electrotransferred onto ECL grade nitrocellulose (Amersham) as described previously (24). […]
# (§4) AP-1 and C/EBP families of transcription factors are responsible for mda-7 promoter activation during human melanoma differentiation. […] Western blot analyses of whole cell lysates (equal protein loading was verified by Coomassie blue staining of a parallel gel, data not shown) from uninduced HO1 cells and cultures treated for 24 h with IFN-β, MEZ, IFN-β+MEZ or TPA were analyzed using anti-cJun/AP-1, anti-C/EBP-α or anti-C/EBP-β antibodies. […]
# mda-7-ARE-3'-UTR = experiment: Luciferase-mda-7-ARE-3'UTR reporter assay; assay type: cell-based, human; details: HO-1 cells
# Description: Posttranscriptional regulation of Luciferase mRNA as a consequence of mda-7-3′ UTR addition at its 3′-end. The Luciferase expression plasmid having SV40 polyadenylation signal sequence was replaced with the 3′-UTR region (approximately 900 bp) of mda-7. […] (FIG. 3A) Mda-7 3′-UTR mediated destabilization of luciferase mRNA was computed as fold induction of luciferase enzyme activity, which is seen only when stable luciferase mRNA, is synthesized. […] (FIG. 3B) Kinetic analysis of luciferase activity (as fold-induction) of the mda-7 promoter-luciferase-ARE-3′-UTR construct as a function of time of treatment with IFN-β+MEZ. Luciferase assays were performed as described by Gopalkrishnan et al. (1999) and briefly in the legend to FIGS. 1A-1B.
# To examine the posttranscriptional regulation of mda-7 mRNA specifically during terminal differentiation of human melanoma cells, we constructed a Luciferease-mda-7-ARE-3′UTR plasmid under transcriptional control of either the FL-mda-7 promoter (FIG. 3) or the SV40 large T-antigen promoter. These plasmids were co-transfected into HO-1 cells and treated with differentiation inducers.
# mda-7 gene = experiment: Nuclear run-on assay of mda-7 transcription; assay type: cell-based, human; details: HO-1 cells, 24 h treatment, versus uninduced control
# Protocol: (FIG. 2A) Nuclear run-on assays using nuclei isolated from Control or 24 h after treatment with IFN-β, MEZ or IFN-β+MEZ, the same concentrations as indicated in FIG. 1. GAPDH was used as an internal control. In vitro transcription assays were performed as previously described (Jiang et al., 1993). […] GAPDH was used as an internal loading control.
# Transcription of the housekeeping gene, GAPDH served as an internal control.
# mda-7 mRNA [2] = experiment: RT-PCR followed by Southern blotting of mda-7 mRNA; assay type: cell-based, human; details: HO-1 cells, compared to IFN-β+MEZ treated samples
# Protocol: (FIG. 2B) Mda-7 message expression detected by Northern blotting and RT-PCR followed by Southern blotting. Total RNA from control (FIG. 2C) HO-1 cells and cells treated with IFN-β (I), MEZ (M) or IFN-β+MEZ (I+M) were analyzed by Northern blotting or RT-PCR/Southern using radiolabeled mda-7 cDNA as a probe as previously described (Jiang et al., 1993, 1995a; Kang et al., 1998a). GAPDH was used as an internal loading control.
# To determine the possible presence of trace amounts of mda-7 mRNA in response to differentiation inducer treatment (IFN-β) and in the absence of treatment, a more sensitive method of message detection was employed, i.e., RT-PCR followed by Southern blotting.
# Nucleic acid analysed. Total cytoplasmic RNA was prepared by the guanidinium-HCL extraction method followed by Northern blotting or RT-PCR analysis using previously published protocols (12, 18, 22). For Northern blots, 15 mg of RNA was denatured with glyoxal/DMSO, electrophoresed on 1% agarose gels, transferred to nylon membranes and hybridized with ^32P-dCTP labeled cDNA probes.
# mda-7 mRNA [3] = experiment: Northern blotting of mda-7 message; assay type: cell-based, human; details: HO-1 cells, 24 h treatment
# Description: FIGS. 5A-5B. Message and protein expression analyses of mda-7 during melanoma terminal differentiation. (FIG. 5A) Northern blotting analysis of mda-7 message expression. Total RNA was isolated from HO-1 cells that were uninduced (C) or treated with IFN-β (I), MEZ (M) or IFN-β+MEZ (I+M) and analyzed by Northern blotting. 28S RNA was used as a loading control. Mda-7 message was detected using a random primed [^32P]-labeled mda-7 cDNA probe (18). (FIG. 5B) Indirect immunofluorescence visualization of MDA-7 protein subcellular localization. Both uninduced HO-i cells (Control; A and S) and terminally differentiated (48 h IFN-β+MEZ treated; C and D) were immuno-labeled using anti-MDA-7 specific monoclonal antibody. Anti-mouse secondary antibodies conjugated with Rhodamine enabled visualization of MDA-7 protein localization (A and C) and the DNA specific dye, DAPI was used to stain nuclei (B and D). With the exception of a cell undergoing mitosis no other cells reveal MDA-7 staining in control cultures (A and B). Terminally differentiated cells in (C) and (D) show strong punctate MDA-7 staining within the nucleus (See enlargement below (C) and (D) of a single nucleus). The arrow points to the punctate bodies to which MDA-7 localizes in the nucleus and their coincidence with DAPI bright staining regions.
# Nucleic acid analysed. […]
# HO-1 cells = details: cited from earlier work
# FL-mda-7 promoter = FL-mda-7 promoter luciferase reporter assay, transient transfection; assay type: cell-based, human; details: HO-1 and MeWo cells, 48 hr treatment, relative to uninduced; IFN-β 2000 units/ml, MEZ 10 ng/ml
# Protocol: The effect of differentiation inducer drug treatment on full length mda-7 promoter activity. Fold induction of the FL-mda-7 promoter relative to the pGL3-Basic plasmid with or without differentiation inducer drug treatment in HO-1 (FIG. 1A) or MeWo (FIG. 1B) human melanoma cells. Luciferase assays were performed as previously described (Gopalkrishnan et al., 1999). In brief, the promoter-containing plasmids were transiently transfected into the different cell types using Superfect^R (Qiagen) according to the manufacturer's protocol. The cells were treated with differentiation inducers (IFN-β, 2000 units/ml; MEZ, 10 ng/ml; or IFN-β+MEZ, 2000 units/ml+10 ng/ml) for 48 h following transfection and assayed for luciferase activity using the Luc+Assat Kit (Promega). The SV40-p-Galactosidase plasmid was co-transfected with the luciferase constructs and used to normalize for variations in transfection efficiencies between experiments. […]
# The presumptive promoter fragment was assayed for promoter activity using a heterologous gene reporter system (pGL3-Basic, luciferase assay system, Promega). […] The transfection efficiency was determined by cotransfection with RSV-β-galactosidase (Tropics β-Gal assay kit) and the relative luciferase activity was computed after correction for variations in transfection efficiencies.
# C/EBP-β/LAP = experiment: Western blotting of C/EBP-β/LAP protein in whole cell lysates; assay type: cell-based, human; details: HO-1 cells, 24 h treatment
# Protocol: as §2, §3, §4
molecule,measurement,setting,value
IL-6: potent inducer of NF-IL6,mda-7 promoter activity,mda-7 promoter,induced
C[C@@H]1C[C@@H]([C@H](O)CC2CC(=O)NC(=O)C2)C(=O)[C@@H](C)C1 [cycloheximide],p21/mda-6 message accumulation,p21/Waf1/Cip1/mda-6,does not show message accumulation
same,accumulation of mda-7 mRNA,mda-7 mRNA [1],visibly increased
CCCCCCCCCCCCCC(=O)O[C@@H]1[C@@H](C)[C@@]2(O)[C@@H](C=C(CO)C[C@]3(O)C(=O)C(C)=C[C@@H]23)[C@@H]2C(C)(C)[C@]12OC(C)=O [TPA],level of cJun/AP-1 protein,cJun/AP-1,only marginally increased
"C=C(C)[C@@]12O[C@@]3(c4ccccc4)O[C@@H]1[C@@H]1[C@@H]4O[C@]4(CO)[C@@H](O)[C@]4(O)C(=O)C(C)=C[C@H]4[C@@]1(O3)[C@H](C)[C@H]2OC(=O)/C=C/C=C/c1ccccc1 [MEZ, mezerein]",luciferase enzyme activity of Luciferase-mda-7-ARE-3'UTR construct,mda-7-ARE-3'-UTR,minimal
same,rate of mda-7 transcription,mda-7 gene,the same
same,mda-7 mRNA by RT-PCR,mda-7 mRNA [2],lower levels
same,mda-7 message by Northern blotting,mda-7 mRNA [3],Quantitatively less
same,growth suppression and differentiation,HO-1 cells,reversible
same,activity of the FL-mda-7 promoter (luciferase),FL-mda-7 promoter,only small changes
same,level of C/EBP-β/LAP protein,C/EBP-β/LAP,approximately 3 fold
